Laboratory results from patent US20250171457A1, “NITROGEN-CONTAINING HETEROCYCLIC COMPOUND HAVING NRF2 ACTIVATION EFFECT” (CHUGAI SEIYAKU KABUSHIKI KAISHA, priority 2022, published 2025).

Tested on: Nrf2 transcriptional activity (pARE-Luc reporter) in HepG2 cells
Test: In vitro Nrf2 transcriptional activity measurement by ARE-dependent reporter assay in HepG2 cell
Assay type: cell-based, human
Conditions: Homo sapiens; HepG2 cells transfected with pARE-Luc, 4 hours at 37° C.; luciferase activity of Example 1-54 or Example 17-23 at 3.75 μM defined as 100%
How it was run: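 HepG2 cells transfected with pGL4.37 (pARE-Luc), replated onto compound and incubated 4 h at 37° C; luciferase read by Bright-Glo luminescence. Response normalized to 100% set by a reference compound at 3.75 μM; EC50 from dose-response curve.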

Structure (SMILES)	EC50
CC(C)(C#N)CN1CC2(C1)CN(c1cc(Cl)c(C(=O)N3COc4c(cccc4-c4cc(N5C6CCC5COC6)c(C(=O)O)cc4F)C3)c(Cl)c1)C2 [Compound 7-7, 4-[3-[2,6-Dichloro-4-[6-(2-cyano-2-methylpropyl)-2,6-diazaspiro[3.3]heptan-2-yl]benzoyl]-2,4-dihydro-1,3-benzoxazin-8-yl]-5-fluoro-2-(3-oxa-8-azabicyclo[3.2.1]octan-8-yl)benzoic acid]	3.4 nM
CC1(F)CN(c2cc(Cl)c(C(=O)N3COc4c(cccc4-c4cc(N5C6CCC5COC6)c(C(=O)O)cc4F)C3)c(Cl)c2)C1 [Compound 1-11, 4-[3-[2,6-Dichloro-4-(3-fluoro-3-methylazetidin-1-yl)benzoyl]-2,4-dihydro-1,3-benzoxazin-8-yl]-5-fluoro-2-(3-oxa-8-azabicyclo[3.2.1]octan-8-yl)benzoic acid]	2.1 nM
COCCN1CC2(C1)CN(c1cc(Cl)c(C(=O)N3COc4c(cccc4-c4cc(N5C6CCC5COC6)c(C(=O)O)cc4F)C3)c(Cl)c1)C2 [Compound 7-3, 4-[3-[2,6-Dichloro-4-[6-(2-methoxyethyl)-2,6-diazaspiro[3.3]heptan-2-yl]benzoyl]-2,4-dihydro-1,3-benzoxazin-8-yl]-5-fluoro-2-(3-oxa-8-azabicyclo[3.2.1]octan-8-yl)benzoic acid]	18 nM
CS(=O)(=O)C1CN(c2cc(Cl)c(C(=O)N3COc4c(cccc4-c4cc(N5CCOCC5)c(C(=O)O)cc4F)C3)c(Cl)c2)C1 [Compound 1-53, 4-[3-[2,6-Dichloro-4-(3-methylsulfonylazetidin-1-yl)benzoyl]-2,4-dihydro-1,3-benzoxazin-8-yl]-5-fluoro-2-morpholin-4-ylbenzoic acid]	5 nM
Cn1ccc2cc(Cl)c(C(=O)N3COc4c(cccc4-c4cc(N5CCOCC5)c(C(=O)O)cc4F)C3)cc21 [Compound 13-12, 4-[3-(5-Chloro-1-methylindole-6-carbonyl)-2,4-dihydro-1,3-benzoxazin-8-yl]-5-fluoro-2-morpholin-4-ylbenzoic acid]	17 nM
CN1CCC2(CC1)CN(c1cc(Cl)c(C(=O)N3COc4c(cccc4-c4cc(N5C6CCC5COC6)c(C(=O)O)cc4F)C3)c(Cl)c1)C2 [Compound 19-17, 4-[3-[2,6-Dichloro-4-(7-methyl-2,7-diazaspiro[3.5]nonan-2-yl)benzoyl]-2,4-dihydro-1,3-benzoxazin-8-yl]-5-fluoro-2-(3-oxa-8-azabicyclo[3.2.1]octan-8-yl)benzoic acid]	6.1 nM
COC1CN(c2cc(Cl)c(C(=O)N3COc4c(cccc4-c4cc(N5C6CCC5COC6)c(C(=O)O)cc4F)C3)c(Cl)c2)C1 [Compound 4-1, 4-[3-[2,6-Dichloro-4-(3-methoxyazetidin-1-yl)benzoyl]-2,4-dihydro-1,3-benzoxazin-8-yl]-5-fluoro-2-(3-oxa-8-azabicyclo[3.2.1]octan-8-yl)benzoic acid]	3.1 nM
CC[C@@H](c1cccc2c1C(=O)NN(C(=O)c1c(Cl)cc(-c3cnn(C)c3)cc1Cl)C2)[C@@H](C)C(=O)O [Compound 17-5, (2R,3R)-3-[2-[2,6-Dichloro-4-(1-methylpyrazol-4-yl)benzoyl]-4-oxo-1,3-dihydrophthalazin-5-yl]-2-methylpentanoic acid]	17 nM
COC1CN(c2cc(Cl)c(C(=O)N3COc4c(cccc4-c4cc(N5C6CCC5COC6)c(C(=O)NS(C)(=O)=O)cc4F)C3)c(Cl)c2)C1 [Compound 16-6, 4-[3-[2,6-Dichloro-4-(3-methoxyazetidin-1-yl)benzoyl]-2,4-dihydro-1,3-benzoxazin-8-yl]-5-fluoro-N-methylsulfonyl-2-(3-oxa-8-azabicyclo[3.2.1]octan-8-yl)benzamide]	170 nM
Cn1cc2cncc(-c3cc(Cl)c(C(=O)N4COc5c(cccc5-c5cc(N6C7CCC6COC7)c(C(=O)O)cc5F)C4)c(Cl)c3)c2n1 [Compound 3-6, 4-[3-[2,6-Dichloro-4-(2-methylpyrazolo[4,3-c]pyridin-7-yl)benzoyl]-2,4-dihydro-1,3-benzoxazin-8-yl]-5-fluoro-2-(3-oxa-8-azabicyclo[3.2.1]octan-8-yl)benzoic acid]	9 nM
O=C(O)c1cc(F)c(-c2cccc3c2OCN(C(=O)c2ccc(N4CCN(C5COC5)CC4)cc2Cl)C3)cc1N1CCOCC1 [Compound 1-70, 4-[3-[2-Chloro-4-[4-(oxetan-3-yl)piperazin-1-yl]benzoyl]-2,4-dihydro-1,3-benzoxazin-8-yl]-5-fluoro-2-morpholin-4-ylbenzoic acid]	4.7 nM
CC1(O)CC2(CN(c3cc(Cl)c(C(=O)N4COc5c(cccc5-c5cc(N6C7CCC6COC7)c(C(=O)O)cc5F)C4)c(Cl)c3)C2)C1 [Compound 16-1, 4-[3-[2,6-Dichloro-4-(6-hydroxy-6-methyl-2-azaspiro[3.3]heptan-2-yl)benzoyl]-2,4-dihydro-1,3-benzoxazin-8-yl]-5-fluoro-2-(3-oxa-8-azabicyclo[3.2.1]octan-8-yl)benzoic acid]	13 nM
[2H]C1([2H])c2cccc(-c3ccc(C(=O)O)c(N4CCOCC4)c3)c2OCN1C(=O)c1c(Cl)cc(-c2cnn(C)c2)cc1Cl [Compound 14-7, 4-[4,4-Dideuterio-3-[2,6-dichloro-4-(1-methylpyrazol-4-yl)benzoyl]-2H-1,3-benzoxazin-8-yl]-2-morpholin-4-ylbenzoic acid]	2.5 nM
Cc1c(F)c(-c2cccc3c2OCN(C(=O)c2c(Cl)cc(-c4cnn(C)c4)cc2Cl)C3)cc(N2CCOCC2)c1C(=O)O [Compound 13-3, 4-[3-[2,6-Dichloro-4-(1-methylpyrazol-4-yl)benzoyl]-2,4-dihydro-1,3-benzoxazin-8-yl]-3-fluoro-2-methyl-6-morpholin-4-ylbenzoic acid]	5.3 nM
CC(C)(O)CN1CCN(c2cc(Cl)c(C(=O)N3COc4c(cccc4-c4cc(N5CCOCC5)c(C(=O)O)cc4F)C3)c(Cl)c2)CC1 [Compound 1-57, 4-[3-[2,6-Dichloro-4-[4-(2-hydroxy-2-methylpropyl)piperazin-1-yl]benzoyl]-2,4-dihydro-1,3-benzoxazin-8-yl]-5-fluoro-2-morpholin-4-ylbenzoic acid]	1.4 nM
CC[C@@H](c1cccc2c1OCN(C(=O)c1c(Cl)cc(-c3cnn(C)c3)cc1Cl)C2)[C@H](C)C(=O)O [Compound 17-3, (2S,3R)-3-[3-[2,6-Dichloro-4-(1-methylpyrazol-4-yl)benzoyl]-2,4-dihydro-1,3-benzoxazin-8-yl]-2-methylpentanoic acid]	9.7 nM
CN1CCOC2(C1)CN(c1cc(Cl)c(C(=O)N3COc4c(cccc4-c4cc(N5C6CCC5COC6)c(C(=O)O)cc4F)C3)c(Cl)c1)C2 [Compound 9-1, 4-[3-[2,6-Dichloro-4-(8-methyl-5-oxa-2,8-diazaspiro[3.5]nonan-2-yl)benzoyl]-2,4-dihydro-1,3-benzoxazin-8-yl]-5-fluoro-2-(3-oxa-8-azabicyclo[3.2.1]octan-8-yl)benzoic acid]	3.5 nM
Cn1cc(-c2cc(Cl)c(C(=O)N3CCc4c(cccc4-c4ccc(C(=O)O)c(N5CCCCC5)n4)C3)c(Cl)c2)cn1 [Compound 18-11, 6-[2-[2,6-Dichloro-4-(1-methylpyrazol-4-yl)benzoyl]-3,4-dihydro-1H-isoquinolin-5-yl]-2-piperidin-1-ylpyridine-3-carboxylic acid]	310 nM
Cn1ncc2c(-c3cc(Cl)c(C(=O)N4COc5c(cccc5-c5cc(N6C7CCC6COC7)c(C(=O)O)cc5F)C4)c(Cl)c3)cncc21 [Compound 3-5, 4-[3-[2,6-Dichloro-4-(1-methylpyrazolo[3,4-c]pyridin-4-yl)benzoyl]-2,4-dihydro-1,3-benzoxazin-8-yl]-5-fluoro-2-(3-oxa-8-azabicyclo[3.2.1]octan-8-yl)benzoic acid]	6.9 nM
O=C(O)c1cc(F)c(-c2cccc3c2OCN(C(=O)c2c(Cl)cc(C4COC4)cc2Cl)C3)cc1N1CCOCC1 [Compound 16-12, 4-[3-[2,6-Dichloro-4-(oxetan-3-yl)benzoyl]-2,4-dihydro-1,3-benzoxazin-8-yl]-5-fluoro-2-morpholin-4-ylbenzoic acid]	9.8 nM
O=C(O)c1cc(F)c(-c2cccc3c2OCN(C(=O)c2c(Cl)cc(-c4cncc5ccoc45)cc2Cl)C3)cc1N1C2CCC1COC2 [Compound 3-25, 4-[3-(2,6-Dichloro-4-furo[3,2-c]pyridin-7-ylbenzoyl)-2,4-dihydro-1,3-benzoxazin-8-yl]-5-fluoro-2-(3-oxa-8-azabicyclo[3.2.1]octan-8-yl)benzoic acid]	7.7 nM
O=C(O)c1cc(F)c(-c2cccc3c2OCN(C(=O)c2c(Cl)cc(N4CCN(C5CCOC5)CC4)cc2Cl)C3)cc1N1C2CCC1COC2 (stereo not shown) [Compound 4-10, 4-[3-[2,6-Dichloro-4-[4-(oxolan-3-yl)piperazin-1-yl]benzoyl]-2,4-dihydro-1,3-benzoxazin-8-yl]-5-fluoro-2-(3-oxa-8-azabicyclo[3.2.1]octan-8-yl)benzoic acid]	4.2 nM
COC1(C(F)F)CN(c2cc(Cl)c(C(=O)N3COc4c(cccc4-c4cc(N5C6CCC5COC6)c(C(=O)O)cc4F)C3)c(Cl)c2)C1 [Compound 1-8, 4-[3-[2,6-Dichloro-4-[3-(difluoromethyl)-3-methoxyazetidin-1-yl]benzoyl]-2,4-dihydro-1,3-benzoxazin-8-yl]-5-fluoro-2-(3-oxa-8-azabicyclo[3.2.1]octan-8-yl)benzoic acid]	2.2 nM
O=C(O)c1cc(F)c(-c2cccc3c2OCN(C(=O)c2c(Cl)cc(N4CC5CC(C4)N5C4COC4)cc2Cl)C3)cc1N1C2CCC1COC2 [Compound 20-5, 4-[3-[2,6-Dichloro-4-[6-(oxetan-3-yl)-3,6-diazabicyclo[3.1.1]heptan-3-yl]benzoyl]-2,4-dihydro-1,3-benzoxazin-8-yl]-5-fluoro-2-(3-oxa-8-azabicyclo[3.2.1]octan-8-yl)benzoic acid]	75 nM
CC(C)(O)CN1CCN(c2cc(Cl)c(C(=O)N3COc4c(cccc4-c4cc(N5C6CCC5COC6)c(C(=O)O)cc4F)C3)c(Cl)c2)CC1 [Compound 4-15, 4-[3-[2,6-Dichloro-4-[4-(2-hydroxy-2-methylpropyl)piperazin-1-yl]benzoyl]-2,4-dihydro-1,3-benzoxazin-8-yl]-5-fluoro-2-(3-oxa-8-azabicyclo[3.2.1]octan-8-yl)benzoic acid]	3.1 nM
